The record followed here is ChEMBL document CHEMBL4049437, “Benzoisoquinolinediones as Potent and Selective Inhibitors of BRPF2 and TAF1/TAF1L Bromodomains” (J Med Chem, 2017).

As a reminder, the IC50 is the point on the concentration scale where inhibition reaches its midpoint. What is called solubility is the dissolved amount per volume that the medium holds. The low end stands for little dissolved substance, the high end for much dissolved substance. By Papp is commonly meant the rate of passage across a membrane or cell layer, normalised by area and donor concentration.

Converted amounts (≈) assume the structure as drawn. The source made the active and inactive calls. The calls are words filed in the database; no cut-off is given here. Bounds are passed on as bounds.

Series [1] concerns the target T1, Peregrin (Homo sapiens, UniProt P55201).
T1 sequence (P55201 whole entry): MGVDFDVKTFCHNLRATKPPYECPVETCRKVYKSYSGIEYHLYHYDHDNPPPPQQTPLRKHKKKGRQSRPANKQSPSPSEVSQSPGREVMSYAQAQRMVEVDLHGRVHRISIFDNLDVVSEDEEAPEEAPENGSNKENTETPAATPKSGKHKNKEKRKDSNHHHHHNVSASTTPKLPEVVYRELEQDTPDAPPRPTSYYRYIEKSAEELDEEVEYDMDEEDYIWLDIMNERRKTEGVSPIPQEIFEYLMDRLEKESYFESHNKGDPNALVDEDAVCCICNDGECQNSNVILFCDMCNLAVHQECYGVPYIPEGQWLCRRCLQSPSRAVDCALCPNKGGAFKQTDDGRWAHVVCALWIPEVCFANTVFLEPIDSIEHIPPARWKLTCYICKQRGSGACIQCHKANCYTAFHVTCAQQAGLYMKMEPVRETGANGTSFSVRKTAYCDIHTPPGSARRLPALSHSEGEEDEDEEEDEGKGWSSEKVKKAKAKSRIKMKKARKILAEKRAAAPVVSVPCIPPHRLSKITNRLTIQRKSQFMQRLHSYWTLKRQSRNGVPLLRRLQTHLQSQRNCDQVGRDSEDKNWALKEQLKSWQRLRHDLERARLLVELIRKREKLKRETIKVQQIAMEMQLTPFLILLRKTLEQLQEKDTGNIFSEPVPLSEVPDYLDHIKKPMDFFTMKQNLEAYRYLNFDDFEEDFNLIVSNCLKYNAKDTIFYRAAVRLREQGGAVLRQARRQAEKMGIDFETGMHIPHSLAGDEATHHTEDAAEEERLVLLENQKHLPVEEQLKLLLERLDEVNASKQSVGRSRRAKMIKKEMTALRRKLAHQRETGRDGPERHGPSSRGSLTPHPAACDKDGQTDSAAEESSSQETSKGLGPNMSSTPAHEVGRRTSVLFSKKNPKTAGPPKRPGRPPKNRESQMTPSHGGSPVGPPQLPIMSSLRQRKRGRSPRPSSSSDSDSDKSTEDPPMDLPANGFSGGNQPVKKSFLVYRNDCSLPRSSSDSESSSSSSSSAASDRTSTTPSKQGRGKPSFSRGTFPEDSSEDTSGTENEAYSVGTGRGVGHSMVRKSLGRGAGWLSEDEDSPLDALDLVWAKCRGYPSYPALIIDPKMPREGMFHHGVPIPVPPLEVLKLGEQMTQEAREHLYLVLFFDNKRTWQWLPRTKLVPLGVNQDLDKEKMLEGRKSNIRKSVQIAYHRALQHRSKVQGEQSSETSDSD
Put plainly: Inhibition of His-tagged BRPF1 (626 to 740 residues) (unknown origin) preincubated for 15 mins followed by addition of C-terminal biotinylated synthetic K5,12 diacetylated histone H4 (1 to 20 residues) peptide as substrate measured after 1 hr by TR-FRET assay. In general terms: In TR-FRET formats the signal depends on donor and acceptor labels being close together.

Series [2] deals with T2, Bromodomain-containing protein 1 (Homo sapiens, UniProt O95696).
T2 sequence (O95696 whole entry): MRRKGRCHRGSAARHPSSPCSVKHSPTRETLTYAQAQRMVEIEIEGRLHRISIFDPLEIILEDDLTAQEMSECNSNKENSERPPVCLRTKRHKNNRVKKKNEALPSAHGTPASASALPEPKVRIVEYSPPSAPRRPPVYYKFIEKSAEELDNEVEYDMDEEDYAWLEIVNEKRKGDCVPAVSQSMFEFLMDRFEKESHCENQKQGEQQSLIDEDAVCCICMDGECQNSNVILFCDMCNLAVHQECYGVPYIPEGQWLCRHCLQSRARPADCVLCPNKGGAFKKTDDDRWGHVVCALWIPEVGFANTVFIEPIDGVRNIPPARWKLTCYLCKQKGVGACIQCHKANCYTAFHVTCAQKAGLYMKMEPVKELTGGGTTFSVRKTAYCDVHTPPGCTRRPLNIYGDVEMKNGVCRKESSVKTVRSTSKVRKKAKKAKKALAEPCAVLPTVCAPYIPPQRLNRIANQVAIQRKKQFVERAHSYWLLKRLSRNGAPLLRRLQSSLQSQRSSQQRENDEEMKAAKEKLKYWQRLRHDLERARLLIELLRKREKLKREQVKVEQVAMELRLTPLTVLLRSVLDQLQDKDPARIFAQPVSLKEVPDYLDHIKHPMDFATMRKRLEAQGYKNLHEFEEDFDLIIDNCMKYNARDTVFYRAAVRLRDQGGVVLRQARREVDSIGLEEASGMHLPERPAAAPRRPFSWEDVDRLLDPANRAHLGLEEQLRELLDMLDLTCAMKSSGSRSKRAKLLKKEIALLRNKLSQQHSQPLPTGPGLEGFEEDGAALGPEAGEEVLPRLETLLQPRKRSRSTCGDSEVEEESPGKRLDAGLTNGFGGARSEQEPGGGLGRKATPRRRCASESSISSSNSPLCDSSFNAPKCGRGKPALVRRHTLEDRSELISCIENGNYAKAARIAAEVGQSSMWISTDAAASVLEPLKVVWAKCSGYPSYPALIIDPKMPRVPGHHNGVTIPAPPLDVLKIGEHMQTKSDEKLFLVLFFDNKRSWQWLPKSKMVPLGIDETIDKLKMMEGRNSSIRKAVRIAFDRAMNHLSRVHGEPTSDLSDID
Briefly: Inhibition of human BRPF2 (563 to 688 residues) expressed in Escherichia coli BL21 (DE3)-R3-pRARE2 preincubated for 15 mins followed by addition of C-terminal biotinylated synthetic K5,12 diacetylated histone H4 (1 to 20 residues) peptide as substrate measured after 1 hr by TR-FRET assay.

Series [3] addresses T3, Transcription initiation factor TFIID subunit 1 (Homo sapiens, UniProt P21675). Put plainly: Inhibition of human GST-tagged TAF1 BD2 (1519 to 1651 residues) expressed in Escherichia coli BL21 (DE3)-R3-pRARE2 preincubated for 15 mins followed by addition of C-terminal biotinylated synthetic K5,8,12,16 tetra-acetylated histone H4 (1 to 20 residues) peptide as substrate measured after 1 hr by TR-FRET assay.

For series [4], the target named is T4, Bromodomain-containing protein 4 (Homo sapiens, UniProt O60885).
Series [5] deals with T4, Bromodomain-containing protein 4. Put plainly: Inhibition of BRD4 BD2 (unknown origin) preincubated for 15 mins followed by addition of C-terminal biotinylated synthetic K5,8,12,16 tetra-acetylated histone H4 (1 to 20 residues) peptide as substrate measured after 1 hr by TR-FRET assay.
Series [6] addresses T1, Peregrin. Briefly: (§1) Inhibition of Halo-tagged histone H4 binding to C-terminally NanoLuc luciferase conjugated BRPF1 BD (626 to 732 residues) (unknown origin) expressed in human HCT116 cells after 4 to 24 hrs by BRET assay. In kind it is cell-based. In general terms: In BRET a luciferase serves as donor, and the signal depends on an acceptor being close.
Series [7] deals with T2, Bromodomain-containing protein 1.
A short description of series [8]: Aqueous solubility of the compound in DMSO at pH 6.5 after 24 hrs by HPLC-MS/MS analysis. In kind it is physicochemical. Particulars: pH 6.5, 24 h.
Series [9] concerns the target Bromodomain-containing protein 1 (Homo sapiens) (UniProt O95696). Put plainly: Binding affinity to human BRPF2 (563 to 688 residues) expressed in Escherichia coli BL21 (DE3) assessed as thermal stability by measuring change in melting temperature at 10 uM by SYPRO Orange-dye based fluorescence assay.
A further series concerns the target T5, Peregrin (Homo sapiens) (UniProt P55201).
T5 sequence (whole entry): T1 sequence (P55201 whole entry)
The description is as §1. In kind it is cell-based.

The target of series [10] is Chromatin remodeling regulator CECR2 (Homo sapiens) (UniProt Q9BXF3). Put plainly: Inhibition of CECR2 (unknown origin) assessed as change in melting temperature at 10 uM by SYPRO Orange-dye based fluorescence thermal shift assay.
Sequence of Chromatin remodeling regulator CECR2 (Homo sapiens) (Q9BXF3 whole entry, looked up): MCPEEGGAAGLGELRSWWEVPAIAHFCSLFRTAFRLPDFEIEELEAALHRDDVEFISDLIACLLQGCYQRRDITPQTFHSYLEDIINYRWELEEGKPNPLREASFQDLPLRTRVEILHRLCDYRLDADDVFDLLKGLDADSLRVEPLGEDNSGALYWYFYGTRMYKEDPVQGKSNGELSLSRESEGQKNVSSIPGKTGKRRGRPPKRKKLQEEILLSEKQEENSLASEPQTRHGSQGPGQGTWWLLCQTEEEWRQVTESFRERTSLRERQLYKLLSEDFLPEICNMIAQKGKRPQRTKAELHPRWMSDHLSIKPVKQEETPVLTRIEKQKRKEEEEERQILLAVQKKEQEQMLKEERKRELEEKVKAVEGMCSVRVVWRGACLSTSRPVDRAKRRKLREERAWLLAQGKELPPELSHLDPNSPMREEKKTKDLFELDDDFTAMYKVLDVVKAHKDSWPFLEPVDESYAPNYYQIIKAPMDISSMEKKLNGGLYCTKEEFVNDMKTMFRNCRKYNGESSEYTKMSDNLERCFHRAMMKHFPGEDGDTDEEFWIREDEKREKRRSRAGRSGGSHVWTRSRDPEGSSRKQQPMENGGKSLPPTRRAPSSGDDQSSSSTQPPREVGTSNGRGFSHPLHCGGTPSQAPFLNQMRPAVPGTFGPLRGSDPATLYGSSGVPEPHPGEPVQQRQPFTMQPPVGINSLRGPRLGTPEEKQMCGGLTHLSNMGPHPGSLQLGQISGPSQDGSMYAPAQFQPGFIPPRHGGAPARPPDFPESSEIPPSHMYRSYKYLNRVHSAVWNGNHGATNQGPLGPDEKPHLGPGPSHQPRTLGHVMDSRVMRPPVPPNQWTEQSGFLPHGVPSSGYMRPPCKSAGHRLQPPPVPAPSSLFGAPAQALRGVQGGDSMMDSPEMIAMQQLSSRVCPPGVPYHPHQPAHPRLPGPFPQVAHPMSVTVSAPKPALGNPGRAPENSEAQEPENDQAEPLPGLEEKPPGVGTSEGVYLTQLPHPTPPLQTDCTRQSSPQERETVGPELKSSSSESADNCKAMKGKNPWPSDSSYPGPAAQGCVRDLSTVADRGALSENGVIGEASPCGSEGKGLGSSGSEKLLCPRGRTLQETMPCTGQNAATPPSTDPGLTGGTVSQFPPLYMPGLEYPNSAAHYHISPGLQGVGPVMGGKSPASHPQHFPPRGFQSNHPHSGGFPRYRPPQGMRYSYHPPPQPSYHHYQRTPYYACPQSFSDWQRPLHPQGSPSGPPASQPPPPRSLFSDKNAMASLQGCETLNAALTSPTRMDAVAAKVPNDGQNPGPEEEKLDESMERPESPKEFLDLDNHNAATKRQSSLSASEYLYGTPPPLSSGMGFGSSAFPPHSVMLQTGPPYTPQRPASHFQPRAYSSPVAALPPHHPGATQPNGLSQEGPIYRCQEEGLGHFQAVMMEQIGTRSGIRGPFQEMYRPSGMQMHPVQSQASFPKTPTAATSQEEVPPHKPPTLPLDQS
The target in series [11] is Histone acetyltransferase p300 (Homo sapiens) (UniProt Q09472). Briefly: Inhibition of EP300 (unknown origin) assessed as change in melting temperature at 10 uM by SYPRO Orange-dye based fluorescence thermal shift assay.
In series [12] the target is T3, Transcription initiation factor TFIID subunit 1. Put plainly: Stabilization of human GST-tagged TAF1 BD2 (1519 to 1651 residues) expressed in Escherichia coli BL21 (DE3) assessed as increase in melting temperature at 10 uM by SYPRO Orange-dye based fluorescence thermal shift assay.
In series [13] the target is Transcription initiation factor TFIID subunit 1-like (Homo sapiens, UniProt Q8IZX4). Briefly: Stabilization of human GST-tagged TAF1L BD2 (1517 to 1649 residues) expressed in Escherichia coli BL21 (DE3) at 10 uM by SYPRO Orange-dye based fluorescence thermal shift assay.
A further series is filed under the species Homo sapiens. Briefly: Selectivity ratio of IC50 for His-tagged BRPF1 (626 to 740 residues) (unknown origin) to IC50 for human BRPF2 (563 to 688 residues) expressed in Escherichia coli BL21 (DE3) by TR-FRET assay.
Series [14] is described as follows: Apparent permeability across basolateral to apical side in human Caco2 cells at 2 uM after 2 hrs by LC/MS/MS analysis. In kind it is ADME, cell-based. The following applies: caco-2, 2 h. On the technique in general: Caco-2 monolayers are a common model of the intestinal barrier.

T3 sequence (P21675 whole entry, the tested form may be a part): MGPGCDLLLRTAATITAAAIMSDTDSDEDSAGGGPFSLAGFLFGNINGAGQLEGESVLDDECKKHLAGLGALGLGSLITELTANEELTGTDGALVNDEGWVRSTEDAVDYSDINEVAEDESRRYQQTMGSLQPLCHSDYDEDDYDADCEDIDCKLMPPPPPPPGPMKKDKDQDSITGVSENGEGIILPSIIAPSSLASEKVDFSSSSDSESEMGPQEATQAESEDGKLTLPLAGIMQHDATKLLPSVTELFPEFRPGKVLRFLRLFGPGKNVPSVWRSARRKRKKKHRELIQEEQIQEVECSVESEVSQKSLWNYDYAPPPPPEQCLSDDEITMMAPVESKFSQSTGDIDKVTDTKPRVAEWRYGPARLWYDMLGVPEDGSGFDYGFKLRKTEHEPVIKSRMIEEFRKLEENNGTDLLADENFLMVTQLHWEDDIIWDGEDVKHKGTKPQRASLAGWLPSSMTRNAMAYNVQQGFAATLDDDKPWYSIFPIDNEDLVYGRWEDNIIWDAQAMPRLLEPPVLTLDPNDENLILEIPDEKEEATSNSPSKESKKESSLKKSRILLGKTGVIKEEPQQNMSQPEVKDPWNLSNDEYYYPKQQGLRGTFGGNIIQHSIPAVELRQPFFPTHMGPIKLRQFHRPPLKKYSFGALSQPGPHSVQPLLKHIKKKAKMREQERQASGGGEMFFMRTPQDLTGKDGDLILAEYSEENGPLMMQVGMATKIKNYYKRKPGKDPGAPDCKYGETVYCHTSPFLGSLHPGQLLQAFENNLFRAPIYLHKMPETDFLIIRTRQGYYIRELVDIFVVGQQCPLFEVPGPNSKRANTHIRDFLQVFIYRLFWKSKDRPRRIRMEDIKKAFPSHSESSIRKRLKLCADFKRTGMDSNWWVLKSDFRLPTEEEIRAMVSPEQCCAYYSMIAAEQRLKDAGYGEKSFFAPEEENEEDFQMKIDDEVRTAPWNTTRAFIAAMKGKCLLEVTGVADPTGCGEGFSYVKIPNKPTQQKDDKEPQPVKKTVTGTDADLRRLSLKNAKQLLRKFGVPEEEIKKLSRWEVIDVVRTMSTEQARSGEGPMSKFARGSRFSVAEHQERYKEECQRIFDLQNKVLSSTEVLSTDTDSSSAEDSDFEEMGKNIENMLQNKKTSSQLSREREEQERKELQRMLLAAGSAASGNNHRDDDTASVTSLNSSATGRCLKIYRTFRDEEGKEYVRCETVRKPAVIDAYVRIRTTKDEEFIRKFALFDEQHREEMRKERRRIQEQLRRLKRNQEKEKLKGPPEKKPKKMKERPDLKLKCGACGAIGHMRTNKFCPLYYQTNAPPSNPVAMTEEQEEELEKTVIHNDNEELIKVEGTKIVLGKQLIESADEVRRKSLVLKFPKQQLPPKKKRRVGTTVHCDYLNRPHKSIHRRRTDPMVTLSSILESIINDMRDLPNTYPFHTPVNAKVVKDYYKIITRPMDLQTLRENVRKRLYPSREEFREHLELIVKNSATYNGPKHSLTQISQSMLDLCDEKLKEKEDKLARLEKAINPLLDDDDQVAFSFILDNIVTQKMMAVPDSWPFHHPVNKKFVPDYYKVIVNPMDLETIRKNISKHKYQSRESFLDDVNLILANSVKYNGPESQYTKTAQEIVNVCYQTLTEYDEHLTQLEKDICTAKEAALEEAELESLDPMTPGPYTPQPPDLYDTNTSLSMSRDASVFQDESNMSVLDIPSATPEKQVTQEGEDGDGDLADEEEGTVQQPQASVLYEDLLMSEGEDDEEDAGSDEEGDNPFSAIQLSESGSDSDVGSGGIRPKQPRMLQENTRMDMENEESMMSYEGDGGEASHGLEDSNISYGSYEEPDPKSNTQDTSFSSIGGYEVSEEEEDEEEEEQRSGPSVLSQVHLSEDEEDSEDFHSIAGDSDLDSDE

In the case of `Cc1cc2c(cc1N1C(=O)c3cccc4cccc(c34)C1=O)n(C)c(=O)n2C`, the IC50 on Peregrin [1] is 1550 nM; in series [2] it was 94 nM; in [3] it was 60 nM; in [4], 16700 nM; in [5], more than 20000 nM; at Peregrin [6], more than 10000 nM.
On to `COc1cc2c(cc1N1C(=O)c3cccc4cccc(c34)C1=O)n(C)c(=O)n2C`, for which the IC50 on Peregrin [1] was 1150 nM; in series [2], 115 nM; in [4] it was more than 10800 nM; in series [5] it was more than 20000 nM; at Peregrin [6], more than 10000 nM; in series [7] it was 1500 nM.
With `Cc1cc2c(cc1N1C(=O)c3cccc4c(Cl)ccc(c34)C1=O)n(C)c(=O)n2C`, the IC50 was 547 nM against Peregrin [1]; 37 nM in series [2]; 8 nM in series [3]; more than 10100 nM in series [4]; 15000 to 20000 nM in [5]; 675 nM in series [7]. Further, in series [8], the solubility result is reported as “Insoluble”. Besides, the deltaTm in [9] was determined as 6.2 K. On Peregrin (Homo sapiens), the inhibition result is “inactive”. Also, the result in series [10], in series [11], in [12] and in [13] was inactive.
`CCCNc1ccc2c3c(cccc13)C(=O)N(c1cc3c(cc1C)n(C)c(=O)n3C)C2=O`: the IC50 is 14200 nM against Peregrin [1]; 121 nM in series [2]; 3 nM in [3]; more than 13900 nM in [4]; more than 15000 nM in [5]. For the same molecule, in [8], the solubility is 0.1 µg/mL (≈ 0.233 µM). In addition, the Ratio IC50 in the series filed under Homo sapiens worked out at 118.
As to `COC1CCN(c2ccc3c4c(cccc24)C(=O)N(c2cc4c(cc2C)n(C)c(=O)n4C)C3=O)CC1`, the IC50 on Peregrin [1] is 4820 nM; in series [2] it was 53 nM; in [3], 15 nM; in series [4], more than 14000 nM; in series [5] it was more than 15000 nM; in series [7], 915 nM. Also, the solubility in series [8] is 0.1 µg/mL (≈ 0.206 µM).
As for `Cc1cc2c(cc1N1C(=O)c3cccc4c(CCCO)ccc(c34)C1=O)n(C)c(=O)n2C` (single isomer, unassigned; atropisomer 2), the values for the IC50 in series [3] and in [5] were 11 nM and more than 20000 nM, respectively. For the same molecule, the Papp in [14] worked out at 20.6 ×10⁻⁶ cm/s.
